Measured values taken from patent publication US20250255984A1, “MNO NANOMATERIAL BASED INHIBITORS OF INFLAMMATION AND CANCER METASTASIS” (priority 2022, published 2025).
Entries after “also recorded” stand apart in the source; their conditions may differ.

What was measured:
COX-2 mRNA = COX-2 mRNA expression (RT-qPCR) in activated RAW264.7 cells; format: cell-based, murine; conditions: 24 h
Description: (§1) TLRs recognize a variety of PAMPs and DAMPs that induce the secretion of several proinflammatory cytokines. Inhibiting TLR activation and blocking DAMP-TLR interactions is a promising strategy for alleviating PTT-induced inflammation and reducing tumor regeneration and metastasis.

calf thymus DNA = assay: PicoGreen DNA-binding assay; conditions: TE buffer, different material:DNA mass ratios, unbound PicoGreen-labeled DNA
Experimental: The fluorescence intensity of the unbound PicoGreen®-DNA complex at 520 nm was measured with a multiwell plate reader via excitation at 490 nm.
Inflammatory circulating cfDNA released by PTT-damaged host cells might cause a severe inflammatory response, which may be mitigated by the scavenging of cfDNA. Therefore, to interrogate the cfDNA scavenging ability of the various nanoparticles, the inventors investigated the calf thymus DNA binding affinity of the nanoparticles in Tris-EDTA (TE) buffer with and without 10% FBS by measuring unbound PicoGreen®-labeled DNA (FIGS. 5D and 5E).

HEK-Blue hTLR9 cells = assay: Agonist-induced TLR activation, HEK-Blue hTLR9 SEAP reporter cells; format: cell-based, human; conditions: dose-dependent, presence or absence of FBS, 24 hours
Experimental: (§2) HEK-Blue hTLR3, hTLR8, and hTLR9 cells were obtained by co-transfecting the hTLR gene and an optimized secreted embryonic alkaline phosphatase (SEAP) reporter gene into HEK293 cells. HEK-Blue hTLR cells were cultured and maintained in DMEM with 10% FBS and 1% penicillin-streptomycin. […] After 24 hours, the supernatants were collected and mixed with Quanti-Blue™. TLR activation associated with SEAP activity was determined with a multiwell plate reader by measuring the OD at 620 nm. The cell densities (in a 96 well plate) used were 8×10^4 cells/well for HEK-Blue hTLR9 cells, 5×10^4 cells/well for HEK-Blue hTLR3 cells, and 4×10^4 cells/well for HEK-Blue hTLR8 cells.
(§3) We further studied nanoparticle-mediated inhibition of proinflammatory molecules-induced TLR activation by using HEK-Blue human TLR (hTLR) cells.
(§4) HEK-Blue hTLR3, hTLR8 and hTLR9 were obtained by co-transfecting the hTLR gene and an optimized secreted embryonic alkaline phosphatase (SEAP) reporter gene into HEK293 cells. HEK-Blue hTLR cells were cultured and maintained in DMEM with 10% FBS and 1% penicillin-streptomycin. […] TLR activation associated with SEAP activity was determined with a multiwell plate reader by measuring the OD at 620 nm.

TNF-α = TNF-α production by activated RAW264.7 macrophages; format: cell-based, murine; conditions: 24 h, 50 and 100 μg/ml
Description: as §1

HEK-Blue hTLR3 cells = assay: Agonist-induced TLR activation, HEK-Blue hTLR3 SEAP reporter cells; format: cell-based, human; conditions: dose-dependent, presence or absence of FBS, 24 hours
Experimental: as §2, §3, §4

HEK-Blue hTLR4 cells = assay: Agonist-induced TLR activation, HEK-Blue hTLR4 reporter cells; format: cell-based, human; conditions: dose-dependent, presence or absence of FBS, 24 hours
Description: as §3

4T1 tumor = assay: 4T1 metastasis tumor model, treatment with or without photothermal therapy; format: in vivo, Balb/c mice
[1] = without laser, intravenous three times per week

In the case of `COc1cc(/C=C/C(=O)CC(=O)/C=C/c2ccc(O)c(OC)c2)ccc1O` [curcumin], the “COX-2 mRNA expression” value (COX-2 mRNA; CpG-activated RAW264.7 cells) is reported as “alleviated the generation of COX-2 mRNA in CpG-induced RAW264.7 cells to some extent”, the “COX-2 mRNA expression” value (COX-2 mRNA; LPS-activated RAW264.7 cells) is reported as “no obvious inhibitory effect” and the DNA binding affinity (calf thymus DNA) is reported as “negligible DNA binding ability”. The “CpG-induced activation of HEK-Blue hTLR9 cells” value (HEK-Blue hTLR9 cells) was “negligible inhibitory effect”, the TNF-α production (TNF-α; CpG-activated RAW264.7 cells) was “slightly reduced” and the TNF-α production (TNF-α; LPS-activated RAW264.7 cells) was “only slightly reduced”. The “poly (I:C)-induced activation of HEK-Blue hTLR3 cells” value (HEK-Blue hTLR3 cells) was “negligible inhibitory effect”, the “LPS-induced activation of HEK-Blue hTLR4 cells” value (HEK-Blue hTLR4 cells) was “negligible inhibitory effect” and the “survival rates of mice” value (4T1 tumor; after PTT) was “greatly improved”. For the same compound, the “tumor recurrence and metastasis” value (4T1 tumor; after laser (PTT)) was “inhibited tumor recurrence and metastasis”, the “body weight of the mice” value (4T1 tumor; after laser (PTT), intravenous three times per week) was “increased body weight” and the “cytokine levels (IL-6, TNF-α and IL-1 beta) in mouse serum, ELISA” value (4T1 tumor; after laser (PTT), versus PBS and laser groups) was “clearly lower”. The “body weight of the mice” value (4T1 tumor; [1]) was “did not show obvious effects” and the “size of the tumors / tumor suppression” value (4T1 tumor; [1]) was “did not show obvious effects; also recorded: small effect”.

With `O=C(OC[C@H]1O[C@@H](OC(=O)c2cc(O)c(O)c(OC(=O)c3cc(O)c(O)c(O)c3)c2)[C@H](OC(=O)c2cc(O)c(O)c(OC(=O)c3cc(O)c(O)c(O)c3)c2)[C@@H](OC(=O)c2cc(O)c(O)c(OC(=O)c3cc(O)c(O)c(O)c3)c2)[C@@H]1OC(=O)c1cc(O)c(O)c(OC(=O)c2cc(O)c(O)c(O)c2)c1)c1cc(O)c(O)c(OC(=O)c2cc(O)c(O)c(O)c2)c1` [tannic acid] the DNA binding affinity (calf thymus DNA) was “can bind to DNA”.
